# Laboratory results: ChEMBL document CHEMBL5030563, “Structure-Based Design of Dual-Acting Compounds Targeting Adenosine A2A Receptor and Histone Deacetylase as Novel Tumor Immunotherapeutic Agents” (J Med Chem, 2021)
# Experiments:
# MC-38 [1] = assay: Antitumour activity against mouse MC38 cells in C57BL/6 mouse assessed as tumour growth inhibition at 60 mg/kg, ip, bid measured after 9 days relative to control; format: functional; settings: MC-38, ip, 216 h, time 9 day, read-out: TGI
# MC-38 [2] = assay: Antitumour activity against mouse MC38 cells in C57BL/6 mouse assessed as tumour growth inhibition at 50 mg/kg, ip, bid measured after 9 days relative to control; format: functional; settings: MC-38, ip, 216 h, time 9 day, read-out: TGI
# MC-38 [3] = assay: Antitumour activity against mouse MC38 cells in C57BL/6 mouse assessed as tumour growth inhibition at 30 mg/kg, ip, bid measured after 9 days relative to control; format: functional; settings: MC-38, ip, 216 h, time 9 day, read-out: TGI
# MC38 [4] = assay: Inhibition of HDAC in mouse MC38 cells assessed as increase in acetyl-histone H4 measured after 24 hrs by Western blot analysis; format: cell-based
# MC38 [5] = assay: Inhibition of HDAC in mouse MC38 cells assessed as increase in acetyl-histone H3 measured after 24 hrs by Western blot analysis; format: cell-based
# Histone deacetylase 8 = molecular target: T1, Histone deacetylase 8 (Homo sapiens, UniProt Q9BY41); assay: Inhibition of HDAC8 (unknown origin) assessed as release of 7-amino-4-methylcoumarin incubated in room temperature for 15 min measured by Spectra max microtitre plate reader
# T1 sequence (Q9BY41 whole entry): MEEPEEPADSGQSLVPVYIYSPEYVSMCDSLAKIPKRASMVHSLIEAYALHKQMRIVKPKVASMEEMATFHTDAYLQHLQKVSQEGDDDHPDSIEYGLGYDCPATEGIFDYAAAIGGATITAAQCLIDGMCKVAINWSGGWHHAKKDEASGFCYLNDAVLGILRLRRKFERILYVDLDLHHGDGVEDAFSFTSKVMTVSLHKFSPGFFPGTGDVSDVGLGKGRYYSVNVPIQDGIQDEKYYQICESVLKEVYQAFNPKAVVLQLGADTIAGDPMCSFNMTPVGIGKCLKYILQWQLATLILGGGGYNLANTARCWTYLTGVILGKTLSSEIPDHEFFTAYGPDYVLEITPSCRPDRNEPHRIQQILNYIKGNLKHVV
# Histone deacetylase 9 = Histone deacetylase 9 (Homo sapiens, UniProt Q9UKV0); assay: Inhibition of HDAC9 (unknown origin) assessed as release of 7-amino-4-methylcoumarin incubated in room temperature for 15 min measured by Spectra max microtitre plate reader
# Histone deacetylase 4 = Histone deacetylase 4 (Homo sapiens, UniProt P56524); assay: Inhibition of HDAC4 (unknown origin) assessed as release of 7-amino-4-methylcoumarin incubated in room temperature for 15 min measured by Spectra max microtitre plate reader
# Histone deacetylase 5 = Histone deacetylase 5 (Homo sapiens, UniProt Q9UQL6); assay: Inhibition of HDAC5 (unknown origin) assessed as release of 7-amino-4-methylcoumarin incubated in room temperature for 15 min measured by Spectra max microtitre plate reader
# Adenosine receptor A2b = molecular target: T2, Adenosine receptor A2b (Homo sapiens, UniProt P29275); assay: Displacement of [3H]DPCPX from human adenosine A2B receptor membrane (unknown origin) measured after 60 mins by scintillation counting analysis; format: cell membranes
# T2 sequence (P29275 whole entry): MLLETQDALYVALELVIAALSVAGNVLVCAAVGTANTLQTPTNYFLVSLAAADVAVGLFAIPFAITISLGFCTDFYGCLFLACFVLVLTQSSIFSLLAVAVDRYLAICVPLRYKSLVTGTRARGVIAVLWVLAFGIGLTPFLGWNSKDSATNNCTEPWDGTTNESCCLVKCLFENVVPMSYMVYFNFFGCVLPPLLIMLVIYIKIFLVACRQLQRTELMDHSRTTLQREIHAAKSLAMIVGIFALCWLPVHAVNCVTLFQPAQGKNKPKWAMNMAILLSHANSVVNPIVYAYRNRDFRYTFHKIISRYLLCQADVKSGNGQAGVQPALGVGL
# [6] = AUC (0 to infinity) in ICR mouse at 5 mg/kg, iv up to 24 hrs by LC-MS/MS analysis; format: ADME, organism-based; set-up: route intravenous, dose 5 mg/kg, time <=24; settings: in vivo
# [7] = AUC (0 to […]) in ICR mouse at 5 mg/kg, iv up to 24 hrs by LC-MS/MS analysis; format: ADME, organism-based; set-up: route intravenous, dose 5 mg/kg, time <=24; settings: in vivo
# [8] = Initial plasma concentration in ICR mouse at 5 mg/kg, iv up to 24 hrs by LC-MS/MS analysis; format: ADME, organism-based
# [9] = Cmax in ICR mouse at 5 mg/kg, iv up to 24 hrs by LC-MS/MS analysis; format: ADME, organism-based; set-up: route intravenous, dose 5 mg/kg, time <=24; settings: in vivo
# [10] = Half life in ICR mouse at 5 mg/kg, iv up to 24 hrs by LC-MS/MS analysis; format: ADME, organism-based; settings: in vivo
# [11] = AUC (0 to infinity) in ICR mouse at 20 mg/kg, ip up to 24 hrs by LC-MS/MS analysis; format: ADME, organism-based; set-up: route intraperitoneal, dose 20 mg/kg, time <=24; settings: in vivo
# [12] = AUC (0 to […]) in ICR mouse at 20 mg/kg, ip up to 24 hrs by LC-MS/MS analysis; format: ADME, organism-based; set-up: route intraperitoneal, dose 20 mg/kg, time <=24; settings: in vivo
# [13] = Tmax in ICR mouse at 20 mg/kg, ip up to 24 hrs by LC-MS/MS analysis; format: ADME, organism-based; settings: in vivo
# [14] = Half life in ICR mouse at 20 mg/kg, ip up to 24 hrs by LC-MS/MS analysis; format: ADME, organism-based; settings: in vivo
# [15] = Elimination rate constant in ICR mouse at 20 mg/kg, ip up to 24 hrs by LC-MS/MS analysis; format: ADME, organism-based; settings: in vivo
# [16] = Oral bioavailability in ICR mouse at 20 mg/kg by LC-MS/MS analysis; format: ADME, organism-based; settings: in vivo
# [17] = MRT in ICR mouse at 20 mg/kg, po by LC-MS/MS analysis; format: ADME, organism-based; settings: in vivo
# [18] = AUC (0 to infinity) in ICR mouse at 20 mg/kg, po by LC-MS/MS analysis; format: ADME, organism-based; set-up: time infinity, route oral, dose 20 mg/kg; settings: in vivo
# [19] = AUC (0 to t) in ICR mouse at 20 mg/kg, po by LC-MS/MS analysis; format: ADME, organism-based; set-up: dose 20 mg/kg; settings: in vivo
# [20] = Cmax in ICR mouse at 20 mg/kg, po by LC-MS/MS analysis; format: ADME, organism-based; set-up: route oral, dose 20 mg/kg; settings: in vivo
# [21] = Tmax in ICR mouse at 20 mg/kg, po by LC-MS/MS analysis; format: ADME, organism-based; settings: in vivo
# [22] = Half life in ICR mouse at 20 mg/kg, po by LC-MS/MS analysis; format: ADME, organism-based; settings: in vivo
# CT26 = assay: Antiproliferative activity against mouse CT26 cells measured after 72 hrs by CCK8 assay; format: functional; settings: Mus musculus, CT26
# MC-38 [23] = assay: Antiproliferative activity against mouse MC38 cells measured after 72 hrs by CCK8 assay; format: functional; settings: Mus musculus, MC-38
# Histone deacetylase 1 = Histone deacetylase 1 (Homo sapiens, UniProt Q13547); assay: Inhibition of HDAC1 (unknown origin) assessed as release of 7-amino-4-methylcoumarin incubated in room temperature for 15 min measured by Spectra max microtitre plate reader
# Adenosine receptor A2a = Adenosine receptor A2a (Homo sapiens, UniProt P29274); assay: Displacement of [3H]SCH58261 from adenosine A2A receptor membrane (unknown origin) measured after 60 mins by scintillation counting analysis; format: cell membranes
# [24] = Toxicity in C57BL/6 mouse assessed as loss in body weight at 30 to 60 mg/kg, ip, bid measured after 9 days; format: organism-based; settings: in vivo, 216 h, dose 30-60 mg/kg, time 9 day
# Chain of Histone deacetylase 5 (Q9UQL6 whole entry): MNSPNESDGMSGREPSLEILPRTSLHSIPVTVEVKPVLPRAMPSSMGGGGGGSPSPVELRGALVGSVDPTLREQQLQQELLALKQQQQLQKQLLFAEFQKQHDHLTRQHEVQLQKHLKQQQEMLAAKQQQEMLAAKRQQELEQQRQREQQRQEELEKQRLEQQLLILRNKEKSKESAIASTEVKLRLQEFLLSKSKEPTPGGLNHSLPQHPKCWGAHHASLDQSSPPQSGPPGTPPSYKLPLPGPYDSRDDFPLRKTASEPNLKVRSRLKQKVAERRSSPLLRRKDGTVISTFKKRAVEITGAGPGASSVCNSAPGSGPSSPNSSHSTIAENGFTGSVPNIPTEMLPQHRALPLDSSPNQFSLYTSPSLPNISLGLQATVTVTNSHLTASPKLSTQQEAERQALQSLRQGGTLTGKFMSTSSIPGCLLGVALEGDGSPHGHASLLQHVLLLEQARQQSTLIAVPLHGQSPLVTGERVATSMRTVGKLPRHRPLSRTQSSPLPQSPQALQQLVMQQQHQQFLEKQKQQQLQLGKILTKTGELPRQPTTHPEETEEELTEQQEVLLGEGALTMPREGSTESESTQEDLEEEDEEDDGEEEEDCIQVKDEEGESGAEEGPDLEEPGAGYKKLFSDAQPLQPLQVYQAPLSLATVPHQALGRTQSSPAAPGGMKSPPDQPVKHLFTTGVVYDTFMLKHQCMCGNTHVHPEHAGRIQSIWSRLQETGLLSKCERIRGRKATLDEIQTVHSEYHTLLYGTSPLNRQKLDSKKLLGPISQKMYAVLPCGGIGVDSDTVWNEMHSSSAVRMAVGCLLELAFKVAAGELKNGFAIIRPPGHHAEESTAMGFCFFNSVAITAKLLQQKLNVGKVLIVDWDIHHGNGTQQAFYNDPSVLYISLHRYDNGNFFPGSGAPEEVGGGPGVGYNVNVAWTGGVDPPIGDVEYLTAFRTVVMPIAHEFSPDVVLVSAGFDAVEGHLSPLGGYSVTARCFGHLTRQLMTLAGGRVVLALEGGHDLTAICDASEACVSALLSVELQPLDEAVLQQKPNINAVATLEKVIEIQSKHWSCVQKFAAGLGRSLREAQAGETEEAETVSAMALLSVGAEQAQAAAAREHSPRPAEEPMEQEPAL
# Chain of Histone deacetylase 1 (Q13547 whole entry): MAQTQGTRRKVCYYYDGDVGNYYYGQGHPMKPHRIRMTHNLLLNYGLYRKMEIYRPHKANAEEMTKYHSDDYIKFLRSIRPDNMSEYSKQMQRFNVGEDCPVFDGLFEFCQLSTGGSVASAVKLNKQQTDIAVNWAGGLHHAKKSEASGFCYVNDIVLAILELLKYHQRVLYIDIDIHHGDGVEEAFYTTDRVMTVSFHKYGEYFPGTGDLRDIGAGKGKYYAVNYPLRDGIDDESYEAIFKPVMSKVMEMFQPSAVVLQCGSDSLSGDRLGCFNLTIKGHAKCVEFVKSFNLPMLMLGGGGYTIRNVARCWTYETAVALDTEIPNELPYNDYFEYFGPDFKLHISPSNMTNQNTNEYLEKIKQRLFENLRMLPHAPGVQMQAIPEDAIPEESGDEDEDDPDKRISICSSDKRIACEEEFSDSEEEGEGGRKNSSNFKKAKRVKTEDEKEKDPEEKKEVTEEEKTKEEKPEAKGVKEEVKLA
# Chain of Histone deacetylase 4 (P56524 whole entry): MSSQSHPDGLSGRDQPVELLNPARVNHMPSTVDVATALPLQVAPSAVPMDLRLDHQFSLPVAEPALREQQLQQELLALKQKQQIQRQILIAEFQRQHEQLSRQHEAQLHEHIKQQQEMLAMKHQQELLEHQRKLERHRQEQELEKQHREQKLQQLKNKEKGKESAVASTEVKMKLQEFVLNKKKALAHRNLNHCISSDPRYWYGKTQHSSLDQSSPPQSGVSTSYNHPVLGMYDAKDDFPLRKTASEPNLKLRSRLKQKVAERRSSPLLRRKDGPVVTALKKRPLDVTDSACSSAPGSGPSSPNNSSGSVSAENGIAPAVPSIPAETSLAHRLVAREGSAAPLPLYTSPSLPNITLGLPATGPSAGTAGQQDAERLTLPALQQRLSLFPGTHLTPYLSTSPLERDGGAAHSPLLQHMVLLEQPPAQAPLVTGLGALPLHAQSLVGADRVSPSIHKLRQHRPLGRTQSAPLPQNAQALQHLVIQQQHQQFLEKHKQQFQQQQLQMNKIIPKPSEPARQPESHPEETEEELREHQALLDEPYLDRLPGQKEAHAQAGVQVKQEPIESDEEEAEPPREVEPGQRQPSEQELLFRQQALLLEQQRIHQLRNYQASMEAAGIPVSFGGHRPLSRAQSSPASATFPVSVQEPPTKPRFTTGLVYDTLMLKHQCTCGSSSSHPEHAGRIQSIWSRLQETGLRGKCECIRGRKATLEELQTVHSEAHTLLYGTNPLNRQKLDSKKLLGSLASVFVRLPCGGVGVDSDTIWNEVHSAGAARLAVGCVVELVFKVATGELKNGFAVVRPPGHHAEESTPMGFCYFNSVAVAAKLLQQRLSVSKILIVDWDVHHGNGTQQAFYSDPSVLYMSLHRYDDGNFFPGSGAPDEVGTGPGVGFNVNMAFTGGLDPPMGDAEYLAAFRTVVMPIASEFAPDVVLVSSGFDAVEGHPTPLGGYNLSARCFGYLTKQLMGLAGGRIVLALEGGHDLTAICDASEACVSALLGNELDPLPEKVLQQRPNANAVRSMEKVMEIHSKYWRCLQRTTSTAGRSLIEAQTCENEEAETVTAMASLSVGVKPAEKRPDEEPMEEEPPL
# Chain of Histone deacetylase 9 (Q9UKV0 whole entry): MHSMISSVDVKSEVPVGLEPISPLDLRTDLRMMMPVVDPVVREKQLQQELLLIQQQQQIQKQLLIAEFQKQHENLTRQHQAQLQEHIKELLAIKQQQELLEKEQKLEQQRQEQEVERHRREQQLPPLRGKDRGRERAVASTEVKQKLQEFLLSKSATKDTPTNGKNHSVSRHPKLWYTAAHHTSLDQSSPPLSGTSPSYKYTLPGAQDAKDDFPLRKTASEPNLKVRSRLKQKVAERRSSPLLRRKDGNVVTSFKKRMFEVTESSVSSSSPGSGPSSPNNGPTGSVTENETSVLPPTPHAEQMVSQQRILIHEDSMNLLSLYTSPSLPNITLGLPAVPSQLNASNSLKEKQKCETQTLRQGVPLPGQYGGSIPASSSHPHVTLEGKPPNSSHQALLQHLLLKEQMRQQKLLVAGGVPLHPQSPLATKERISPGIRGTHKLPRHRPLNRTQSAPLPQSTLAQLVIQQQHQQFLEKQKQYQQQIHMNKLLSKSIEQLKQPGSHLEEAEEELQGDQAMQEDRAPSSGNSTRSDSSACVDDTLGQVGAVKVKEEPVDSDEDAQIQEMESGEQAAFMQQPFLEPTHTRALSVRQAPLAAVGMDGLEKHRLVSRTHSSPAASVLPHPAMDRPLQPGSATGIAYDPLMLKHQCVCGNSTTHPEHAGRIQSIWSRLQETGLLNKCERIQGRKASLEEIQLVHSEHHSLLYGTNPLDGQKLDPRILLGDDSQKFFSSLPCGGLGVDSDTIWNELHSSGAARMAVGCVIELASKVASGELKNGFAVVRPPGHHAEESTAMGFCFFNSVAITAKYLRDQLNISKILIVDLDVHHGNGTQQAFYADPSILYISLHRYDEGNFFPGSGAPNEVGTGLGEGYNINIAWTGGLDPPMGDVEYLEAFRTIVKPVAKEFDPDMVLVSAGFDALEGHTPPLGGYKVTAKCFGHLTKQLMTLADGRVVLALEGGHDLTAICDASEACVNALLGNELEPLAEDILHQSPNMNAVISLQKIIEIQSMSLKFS
# Chain of Adenosine receptor A2a (P29274 whole entry): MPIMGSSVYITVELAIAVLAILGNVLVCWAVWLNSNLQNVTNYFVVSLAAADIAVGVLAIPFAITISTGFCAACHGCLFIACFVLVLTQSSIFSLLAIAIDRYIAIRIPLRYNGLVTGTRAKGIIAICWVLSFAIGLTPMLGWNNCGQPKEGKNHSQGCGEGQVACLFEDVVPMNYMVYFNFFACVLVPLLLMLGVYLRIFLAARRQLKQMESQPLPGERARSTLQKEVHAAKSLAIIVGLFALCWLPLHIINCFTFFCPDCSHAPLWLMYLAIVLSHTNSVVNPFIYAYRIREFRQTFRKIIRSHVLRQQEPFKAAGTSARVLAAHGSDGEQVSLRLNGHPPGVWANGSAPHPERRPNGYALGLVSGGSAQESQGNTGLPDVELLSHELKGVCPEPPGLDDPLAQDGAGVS
smiles,measurement,setting,value
Nc1ccccc1NC(=O)c1ccc(CCn2ncc3c2nc(N)n2nc(-c4ccco4)nc32)cc1,inhibition in vivo at 60 mg/kg,MC-38 [1],95.3%
same,inhibition in vivo at 50 mg/kg,MC-38 [2],81%
same,inhibition in vivo at 30 mg/kg,MC-38 [3],57.8%
same,Activity,MC38 [4],Dose-Dependent Effect
same,Activity,MC38 [5],Dose-Dependent Effect
same,IC50,Histone deacetylase 8,> 10 µM
same,IC50,Histone deacetylase 9,> 10 µM
same,IC50,Histone deacetylase 4,> 10 µM
same,IC50,Histone deacetylase 5,> 10 µM
same,Ki,Adenosine receptor A2b,0.35 µM
same,AUC(0-inf),[6],1470 ng·h/mL
same,AUC(0-t),[7],1460 ng·h/mL
same,C0 at 24 h,[8],4580 ng/mL
same,Cmax,[9],3320 ng/mL
same,half-life,[10],17.1 min
same,AUC(0-inf),[11],6630 ng·h/mL
same,AUC(0-t),[12],6540 ng·h/mL
same,Tmax,[13],25 min
same,half-life,[14],113 min
same,k el at 24 h,[15],0.000138 s⁻¹
same,bioavailability,[16],30.3%
same,MRT,[17],84.6 min
same,AUC(0-inf),[18],1810 ng·h/mL
same,AUC(0-t),[19],1770 ng·h/mL
same,Cmax,[20],1590 ng/mL
same,Tmax,[21],15 min
same,half-life,[22],118 min
same,GI50,CT26,6.1 µM
same,GI50,MC-38 [23],6.2 µM
same,IC50,Histone deacetylase 1,0.0802 µM
same,Ki,Adenosine receptor A2a,0.0022 µM
same,Activity,[24],Toxic
